Patent publication US4348393A, “N-Aryl oxazolidinones, oxazolidinethiones, pyrrolidinones, pyrrolidines and thiazolidinones” (Delalande S.A., priority 1978, dated 1982)
Read-outs that look alike come from different tables or passages of the source.

Assays:
[1] = test system: ptosis observed one hour after reserpine; assay: Test B: antagonism of reserpine-induced ptosis in mice; assay type: in vivo; settings: Mus musculus, 1 h, po, antagonism of ptosis one hour after reserpine 2 mg/kg intravenous, read-out: Test B ED 50
Protocol: Test B: Antagonism with respect to the ptosis observed one hour after an intravenous injection (2 mg/kg) of reserpine given to mice, following the protocol described by C.

[2] = test system: generalized trembling caused by dl-5-hydroxytryptophane; assay: Test A: potentiation in mice of generalized trembling caused by dl-5-hydroxytryptophane; assay type: in vivo; settings: Mus musculus, po, read-out: Test A ED 50
Protocol: Test A: Potentiation in mice of generalized trembling caused by an interperitoneal injection (200 mg/kg) of dl-5-hydroxytryptophane, following the protocol described by C. GOURET and G. RAYNAUD in J. Pharmacol. (Paris), (1974), 5, 231.

Toxicity LD50 mouse = settings: in vivo, po, read-out: Toxicity LD 50
[3] = mice, potentiation of trembling by dl-5-hydroxytryptophane 200 mg/kg interperitoneal

Row | SMILES | ED50 [1] [mg/kg] | ED50 [2, 3] [mg/kg] | LD50 (Toxicity LD50 mouse) [mg/kg] | ED50 [2] [mg/kg]
1 | O=[N+]([O-])c1cccc(COc2ccc(N3CC(CO)OC3=S)cc2)c1 (centres unmarked) [compound 94] | 1 | 1.5 | > 2000 | 
2 | COCC1CN(c2ccc(/C=C/c3cccc([N+](=O)[O-])c3)cc2)C(=O)O1 (centres unmarked) [compound 191] | 0.38 | 0.4 | 1000 | 
3 | CCNCC1CN(c2ccc(OCc3cccc([N+](=O)[O-])c3)cc2)C(=O)O1 (centres unmarked) [compound 203] | 1.4 | 5.2 | 1000 | 
4 | COCC1CN(c2ccc(OCc3cccnc3)cc2)C(=S)O1 (centres unmarked) [compound 213] | 2 | 3 | 1000 | 
5 | N#CCCCCOc1ccc(N2CC(CO)OC2=S)cc1 (centres unmarked) [compound 215] | 10 | 6.2 | > 1000 | 
6 | COCC1CN(c2ccc(OCc3cccc(I)c3)cc2)C(=O)O1 (centres unmarked) [compound 198] | 34 | 40 | > 1000 | 
7 | CC(=O)OCC1CN(c2ccc(OCCC(C)C)cc2)C(=O)O1 (centres unmarked) [compound 123] | 1.4 | 2 | > 2000 | 
8 | O=C1CC(CO)CN1c1ccc(OCc2cccc([N+](=O)[O-])c2)cc1 (centres unmarked) [compound 99] | 30 | 50 | > 2000 | 
9 | N#Cc1cccc(COc2ccc(N3CC(CN)OC3=O)cc2)c1 (centres unmarked) [compound 205] | 3 | 10.1 | > 1000 | 
10 | COCC1CN(c2ccc(OCc3cccc([N+](=O)[O-])c3)cc2)C(=S)O1 (centres unmarked) [compound 118] | 0.1 | 1 | > 2000 | 
11 | COCC1CN(c2ccc(OCC3(C)CCCC3)cc2)C(=O)O1 (centres unmarked) [compound 186] | 3 | 3 | > 1000 | 
12 | COCC1CN(c2ccc(/C=C/c3cccc(Cl)c3)cc2)C(=O)O1 (centres unmarked) [compound 190] | 0.23 | 1 | > 1000 | 
13 | COCC1CN(c2ccc(OCC=C(C)C)cc2)C(=O)O1 (centres unmarked) [compound 185] | 7 | 12 | > 1000 | 
14 | COC[C@H]1CN(c2ccc(OCc3cccc(C#N)c3)cc2)C(=O)O1 [compound 199] |  | 0.31 | > 1000 | 
15 | COCC1CN(c2ccc(OCC3=CCCC3)cc2)C(=O)O1 (centres unmarked) [compound 184] | 0.72 | 1.2 | > 1000 | 
16 | CCCOCC1CN(c2ccc(OCc3cccc([N+](=O)[O-])c3)cc2)C(=S)O1 (centres unmarked) [compound 210] | 7.4 | 26 | > 1000 | 
17 | COCC1CN(c2ccc(OCC3CCCC3)cc2)C(=S)O1 (centres unmarked) [compound 211] | 1.2 | 2 | 1000 | 
18 | CCC(=O)OCC1CN(c2ccc(OCc3cccc([N+](=O)[O-])c3)cc2)C(=S)O1 (centres unmarked) [compound 208] | 4.2 | 10 | > 1000 | 
19 | COCC1CN(c2ccc(C#Cc3ccccc3)cc2)C(=O)O1 (centres unmarked) [compound 189] | 0.9 | 2.6 | > 1000 | 
20 | COCC1CN(c2ccc(OCc3cccc([N+](=O)[O-])c3)cc2)C(=O)S1 (centres unmarked) [compound 219, para (metanitro) benzyloxyphenyl-3 methoxymethyl-5 thiazolidinone-2] | 13.5 | 7 | > 1000 | 
21 | COC[C@@H]1CN(c2ccc(OCc3cccc(C#N)c3)cc2)C(=O)O1 [compound 200] |  | 1.7 | > 1000 | 
22 | CC(=O)OCC1CN(c2ccc(OCCC#N)cc2)C(=O)O1 (centres unmarked) [compound 3] | 2.7 | 3.1 | > 2000 | 
23 | COCC1CN(c2ccc(OCCN3CCOCC3)cc2)C(=O)O1 (centres unmarked) [compound 181] | 9 | 4 | > 1000 | 
24 | CCC(=O)OCC1CN(c2ccc(OCc3cccc(C#N)c3)cc2)C(=O)O1 (centres unmarked) [compound 132] | 2 | 3 | > 2000 | 
25 | CC(=O)OCC1CN(c2ccc(OCC3CCCC3)cc2)C(=O)O1 (centres unmarked) [compound 13] | 2 | 3 | > 2000 | 

Row | SMILES | ED50 [1] [mg/kg] | ED50 [2, 3] [mg/kg] | LD50 (Toxicity LD50 mouse) [mg/kg] | ED50 [2] [mg/kg]
26 | CC(C)CCOc1ccc(N2CC(CO)OC2=S)cc1 (centres unmarked) [compound 91] | 5.5 |  | > 2000 | 4.5
27 | COCC1CN(c2ccc(-c3ccccc3)cc2)C(=O)O1 (centres unmarked) [compound 195] | 2.2 | 1.2 | > 1000 | 
28 | CN(C)CC1CN(c2ccc(OCc3cccc(C#N)c3)cc2)C(=O)O1 (centres unmarked) [compound 206] | 4.3 | 6 | > 1000 | 
29 | COCC1CN(c2ccc(OCc3cc(C#N)cc([N+](=O)[O-])c3)cc2)C(=S)O1 (centres unmarked) [compound 218] | 13.5 | 7.2 | > 1000 | 
30 | COCC1CN(c2ccc(/C=C/c3cccc(C#N)c3)cc2)C(=O)O1 (centres unmarked) [compound 196] | 0.55 |  | > 1000 | 
31 | COCC1CN(c2ccc(OCC3CCCCC3)cc2)C(=S)O1 (centres unmarked) [compound 114] | 2 | 3.7 | > 2000 | 
32 | CC=CCOc1ccc(N2CC(COC)OC2=O)cc1 (centres unmarked) [compound 179] | 7 |  | > 1000 | 4.5
33 | COCC1CN(c2ccc(OCCC(C)C)cc2)C(=S)O1 (centres unmarked) [compound 214] | 1.8 | 0.84 | 1000 | 
34 | COCC1CN(c2ccc(OCc3ccc(F)c([N+](=O)[O-])c3)cc2)C(=O)O1 (centres unmarked) [compound 169] | 4.1 | 3 | > 1000 | 
35 | COCC1CN(c2ccc(N(C)C)cc2)C(=O)O1 (centres unmarked) [compound 180] | 7.8 | 7.4 | 1000 | 
36 | COCC1CN(c2ccc(OCc3cccc(Br)c3)cc2)C(=O)O1 (centres unmarked) [compound 197] | 6.7 | 2.2 | > 1000 | 
37 | COCC1CN(c2ccc(OCc3ccc([N+](=O)[O-])c(Cl)c3)cc2)C(=O)O1 (centres unmarked) [compound 168] | 16 | 25 | > 1000 | 
38 | CNCC1CN(c2ccc(OCC3CCCC3)cc2)C(=O)O1 (centres unmarked) [compound 77] | 6.2 | 2.5 | > 2000 | 
39 | N#Cc1cc(COc2ccc(N3CC(CO)OC3=S)cc2)ccc1F (centres unmarked) [compound 209] | 6.7 | 7 | 1000 | 
40 | COCC1CN(c2ccc(OCC3CCCC3)cc2)C(=O)O1 (centres unmarked) [compound 49] | 0.4 | 0.5 | 2000 | 
41 | CCCCC(=O)OCC1CN(c2ccc(OCc3cccc(Cl)c3)cc2)C(=O)O1 (centres unmarked) [compound 33] | 4.5 | 9.4 |  | 
42 | N#CCOc1ccc(N2CC(CO)OC2=S)cc1 (centres unmarked) [compound 92] | 50 | 30 |  | 
43 | COCC1CN(c2ccc(OCC3CCC(=O)CC3)cc2)C(=O)O1 (centres unmarked) [compound 188] | 0.4 | 0.3 |  | 
44 | COCC1CN(c2cccc(C)c2)C(=O)O1 (centres unmarked) [compound 45] | 50 | 45 |  | 
45 | OCC1CN(c2ccc(OCc3ccc(Cl)cc3)cc2)C(=S)O1 (centres unmarked) [compound 95] | 35 | 50 |  | 
46 | CCCCCCCCC(=O)OCC1CN(c2ccc(OCC3CCCC3)cc2)C(=O)O1 (centres unmarked) [compound 19] | 3.5 | 5.5 |  | 
47 | COCC1CN(c2ccc(OCc3cccc(Cl)c3)cc2)C(=O)O1 (centres unmarked) [compound 59] | 3.1 | 3.4 |  | 
48 | COCC1CN(c2ccc(OCCC#N)cc2)C(=O)O1 (centres unmarked) [compound 52] |  | 1.2 | > 2000 | 
49 | O=C(OCC1CN(c2ccc(OCc3cccc([N+](=O)[O-])c3)cc2)C(=O)O1)C1CCCCC1 (centres unmarked) [compound 41] | 4.5 | 6.2 |  | 
50 | CC(C)CCOCC1CN(c2ccc(OCc3cccc([N+](=O)[O-])c3)cc2)C(=O)O1 (centres unmarked) [compound 158] | 6 | 6 |  | 
